Assay results as given in US8257478B2, “Use of marine fungus originated compounds as antifouling agents” (The Hong Kong University of Science and Technology, priority 2004, dated 2012).
Converted amounts (≈) assume the structure as drawn. Read-outs that look alike come from different tables or passages of the source.

How the values were obtained:
Micrococcus luteus = assay: agar disc diffusion assay, inhibition zone; format: cell-based; conditions: 50 μg/disc, 30° C., 24 h, read-out: Inhibition Zone Width
Procedure: (§1) Antibacterial activity was tested against bacteria using an agar disc diffusion assay method. Sterile paper discs (6 mm i.d.) impregnated with the substance under test at a concentration of 50 μg disc^−1 were applied onto the surface of an agar plate (plastic Petri dish) inoculated with one strain with sterile forceps and gently pressed down to ensure good contact with the surface. Blank discs treated with the same volume of DMSO were added. A control disc, containing streptomycin was used. After the application of discs, the plates were incubated at 30° C. for 24 h, and then the size of the inhibition zone was measured.
as §1, with “using” for “using an”, “assay.” for “assay method.”, “disc” for “disc,”, “h. The” for “h, and then the”, “measured. The results are presented in Table 8 and Table 9 for Cyclo (D)-Pro-(D)-Phe and b3-methyl-N-(2-phenylethyl)butanamide, respectively.” for “measured.”

Moraxella phenylpyruvica = assay: agar disc diffusion assay, inhibition zone; format: cell-based; conditions: Psychrobacter phenylpyruvicus; 50 μg/disc, 30° C., 24 h; read-out: Inhibition Zone Width
Procedure: as §1
as §1, with “using” for “using an”, “assay.” for “assay method.”, “disc” for “disc,”, “h. The” for “h, and then the”, “measured. The results are presented in Table 8 and Table 9 for Cyclo (D)-Pro-(D)-Phe and b3-methyl-N-(2-phenylethyl)butanamide, respectively.” for “measured.”

[1] = system: Pseudoalteromonas piscida; assay: agar disc diffusion assay, inhibition zone; format: cell-based; conditions: 50 μg/disc, 30° C., 24 h, read-out: Inhibition Zone Width
Procedure: as §1
as §1, with “using” for “using an”, “assay.” for “assay method.”, “disc” for “disc,”, “h. The” for “h, and then the”, “measured. The results are presented in Table 8 and Table 9 for Cyclo (D)-Pro-(D)-Phe and b3-methyl-N-(2-phenylethyl)butanamide, respectively.” for “measured.”

Pseudoalteromonas sp. = assay: agar disc diffusion assay, inhibition zone; format: cell-based; conditions: 50 μg/disc, 30° C., 24 h, read-out: Inhibition Zone Width
Procedure: as §1
as §1, with “using” for “using an”, “assay.” for “assay method.”, “disc” for “disc,”, “h. The” for “h, and then the”, “measured. The results are presented in Table 8 and Table 9 for Cyclo (D)-Pro-(D)-Phe and b3-methyl-N-(2-phenylethyl)butanamide, respectively.” for “measured.”

Shewanella algae = assay: agar disc diffusion assay, inhibition zone; format: cell-based; conditions: 50 μg/disc, 30° C., 24 h, read-out: Inhibition Zone Width
Procedure: as §1
as §1, with “using” for “using an”, “assay.” for “assay method.”, “disc” for “disc,”, “h. The” for “h, and then the”, “measured. The results are presented in Table 8 and Table 9 for Cyclo (D)-Pro-(D)-Phe and b3-methyl-N-(2-phenylethyl)butanamide, respectively.” for “measured.”

[2] = system: Staphylococcus haemolyticus; assay: agar disc diffusion assay, inhibition zone; format: cell-based; conditions: 50 μg/disc, 30° C., 24 h, read-out: Inhibition Zone Width
Procedure: as §1
as §1, with “using” for “using an”, “assay.” for “assay method.”, “disc” for “disc,”, “h. The” for “h, and then the”, “measured. The results are presented in Table 8 and Table 9 for Cyclo (D)-Pro-(D)-Phe and b3-methyl-N-(2-phenylethyl)butanamide, respectively.” for “measured.”

Vibrio fluvialis = assay: agar disc diffusion assay, inhibition zone; format: cell-based; conditions: 50 μg/disc, 30° C., 24 h, read-out: Inhibition Zone Width
Procedure: as §1
as §1, with “using” for “using an”, “assay.” for “assay method.”, “disc” for “disc,”, “h. The” for “h, and then the”, “measured. The results are presented in Table 8 and Table 9 for Cyclo (D)-Pro-(D)-Phe and b3-methyl-N-(2-phenylethyl)butanamide, respectively.” for “measured.”

Vibrio harveyi = assay: agar disc diffusion assay, inhibition zone; format: cell-based; conditions: 50 μg/disc, 30° C., 24 h, read-out: Inhibition Zone Width
Procedure: as §1
as §1, with “using” for “using an”, “assay.” for “assay method.”, “disc” for “disc,”, “h. The” for “h, and then the”, “measured. The results are presented in Table 8 and Table 9 for Cyclo (D)-Pro-(D)-Phe and b3-methyl-N-(2-phenylethyl)butanamide, respectively.” for “measured.”

Vibrio sp. (NAP-4) = assay: agar disc diffusion assay, inhibition zone; format: cell-based; conditions: 24 h, read-out: Inhibition Zone Width
Procedure: as §1
as §1, with “using” for “using an”, “assay.” for “assay method.”, “disc” for “disc,”, “h. The” for “h, and then the”, “measured. The results are presented in Table 8 and Table 9 for Cyclo (D)-Pro-(D)-Phe and b3-methyl-N-(2-phenylethyl)butanamide, respectively.” for “measured.”

Loktanella hongkongensis = assay: agar disc diffusion assay, inhibition zone; format: cell-based; conditions: Limimaricola hongkongensis, 24 h, read-out: Inhibition Zone Width
Procedure: as §1, with “using” for “using an”, “assay.” for “assay method.”, “disc” for “disc,”, “h. The” for “h, and then the”, “measured. The results are presented in Table 8 and Table 9 for Cyclo (D)-Pro-(D)-Phe and b3-methyl-N-(2-phenylethyl)butanamide, respectively.” for “measured.”

Rhodovulum sp. = assay: agar disc diffusion assay, inhibition zone; format: cell-based; conditions: 24 h, read-out: Inhibition Zone Width
Procedure: as §1, with “using” for “using an”, “assay.” for “assay method.”, “disc” for “disc,”, “h. The” for “h, and then the”, “measured. The results are presented in Table 8 and Table 9 for Cyclo (D)-Pro-(D)-Phe and b3-methyl-N-(2-phenylethyl)butanamide, respectively.” for “measured.”

Vibrio alginolyticus = assay: agar disc diffusion assay, inhibition zone; format: cell-based; conditions: 24 h, read-out: Inhibition Zone Width
Procedure: as §1, with “using” for “using an”, “assay.” for “assay method.”, “disc” for “disc,”, “h. The” for “h, and then the”, “measured. The results are presented in Table 8 and Table 9 for Cyclo (D)-Pro-(D)-Phe and b3-methyl-N-(2-phenylethyl)butanamide, respectively.” for “measured.”

Vibrio furnissii = assay: agar disc diffusion assay, inhibition zone; format: cell-based; conditions: 24 h, read-out: Inhibition Zone Width
Procedure: as §1, with “using” for “using an”, “assay.” for “assay method.”, “disc” for “disc,”, “h. The” for “h, and then the”, “measured. The results are presented in Table 8 and Table 9 for Cyclo (D)-Pro-(D)-Phe and b3-methyl-N-(2-phenylethyl)butanamide, respectively.” for “measured.”

Vibrio halioticoli = assay: agar disc diffusion assay, inhibition zone; format: cell-based; conditions: 24 h, read-out: Inhibition Zone Width
Procedure: as §1, with “using” for “using an”, “assay.” for “assay method.”, “disc” for “disc,”, “h. The” for “h, and then the”, “measured. The results are presented in Table 8 and Table 9 for Cyclo (D)-Pro-(D)-Phe and b3-methyl-N-(2-phenylethyl)butanamide, respectively.” for “measured.”

Vibrio vulnificus = assay: agar disc diffusion assay, inhibition zone; format: cell-based; conditions: 24 h, read-out: Inhibition Zone Width
Procedure: as §1, with “using” for “using an”, “assay.” for “assay method.”, “disc” for “disc,”, “h. The” for “h, and then the”, “measured. The results are presented in Table 8 and Table 9 for Cyclo (D)-Pro-(D)-Phe and b3-methyl-N-(2-phenylethyl)butanamide, respectively.” for “measured.”

[3] = system: barnacle Balanus amphitrite larvae; assay: anti-larval settlement bioassay in 24-well plates; format: in vivo; conditions: for EC50: Amphibalanus amphitrite, read-out: EC50 (anti-larval settlement)
Procedure: Anti-larval settlement activity of 3-chloro-2,5-dihydroxy benzyl alcohol (compound 1) was conducted using 24-well polystyrene plates. Pure compound was dissolved in DMSO and added to autoclaved FSW at different concentrations. Competent Balanus amphitrites larvae (10±2 individuals) were added to each well with 1 ml testing solution in 5 replicates, and wells containing FSW (filtered seawater) served as control. The 24-well plates were incubated at 30° C. for 24 h. The percent settlement was determined by counting the number of settled larvae under a dissecting microscope. In all bioassays, FSW served as the control. Statistical calculations were performed with the SPSS (Statistical Package for the Social Sciences) software package, Version 11.
(§2) The larval bioassay was conducted according to Rittschof et al. (1994), which is incorporated by reference herein in its entirety.
(§3) The assay was conducted according to Rittschof et al. (1994). Data plotted are means+SD of five replicates.
For determining anti-larval settlement activity, adult Balanus amphitrile (Darwin) were collected from the intertidal zone in Hong Kong (22°19′N, 114°16′E). Nauplii obtained from several adults were mass-reared to cyprid stage at a density of 2 larvae ml^−1 in 0.22-μm-filtered seawater with 30 ppt salinity (FSW) using Chaetoceros gracilis Schutt as food and a rearing temperature of 28° C. Newly transformed cyprids were used for the experiment.
Anti-larval settlement activity of succinic acid against B. amphitrite was determined using 24-well polystyrene plates. Pure compound was dissolved in autoclaved FSW ranged from 60-140 μg ml^−1 for B. amphitrite. Competent larvae (15±2 individuals) were added to each well with 1 ml testing solution in 5 replicates, and wells containing FSW served as the control. The 24-well plates were incubated at 30° C. for 24 h. The percent larval settlement was determined by counting the number of settled individuals under a dissecting microscope and expressed as a proportion of the total number of larvae in the well.

in vivo = conditions: Balanus amphitrite (barnacle) larvae, in vivo
Procedure: as §2
(§4) Toxicity of cyclo (D)-Pro-(D)-Phe was determined using 24-well polystyrene plates. Pure compound was dissolved in DMSO and added to autoclaved FSW to form different concentrations. Competent Balanus amphitrites larvae (10±2 individuals) were added to each well with 1 ml testing solution in 5 replicates. The wells containing FSW served as the control. The 24-well plates were incubated at 30° C. for 24 h. The percent mortality was determined by counting the number of dead larvae under a dissecting microscope.
as §3

[4] = system: Balanus amphitrite larvae; assay: in vivo
Procedure: as §2, §4, §3

[5] = solubility in organic solvents; format: physicochemical; conditions: at 25° C. in methanol, ethanol, propanol, butanol
Ruegeria sp. = assay: agar disc diffusion assay, inhibition zone; format: cell-based; conditions: 50 μg/disc, 30° C., 24 h; read-out: Inhibition Zone Width
Procedure: as §1

Staphylococcus aureus = assay: agar disc diffusion assay, inhibition zone; format: cell-based; conditions: 50 μg/disc, 30° C., 24 h, read-out: Inhibition Zone Width
Procedure: as §1

[6] = Balanus amphitrite, in vivo, 24 h
[7] = ethyl acetate, acetone and acetonitrile

Row | SMILES | zone of inhibition at 50 µg/disc (Micrococcus luteus) | zone of inhibition at 50 µg/disc (Moraxella phenylpyruvica) | zone of inhibition at 50 µg/disc [1] | zone of inhibition at 50 µg/disc (Pseudoalteromonas sp.) | zone of inhibition at 50 µg/disc (Shewanella algae) | zone of inhibition at 50 µg/disc [2] | zone of inhibition at 50 µg/disc (Vibrio fluvialis) | zone of inhibition at 50 µg/disc (Vibrio harveyi) | LC50 at 24 h (in vivo) | zone of inhibition at 50 µg/disc (Vibrio sp. (NAP-4); 50 μg/disc, 30° C.) | EC50 ([3]; Balanus amphitrite larvae) | therapeutic ratio LC50/EC50 [4, 6] | solubility [5, 7] | further results
1 | CC(C)CC(=O)NCCc1ccccc1 [Compound 3, 3-methyl-N-(2-phenylethyl) butanamide] | 3.3 ± 0.6 mm | 0 mm | 1.5 mm | 0 mm | 1.3 ± 0.6 mm | 0.5 mm | 0 mm | 0 mm | 81.4 µg/mL (≈ 396 µM) | – | – | – | – | zone of inhibition at 50 µg/disc (Vibrio sp. (NAP-4)): 0 mm; zone of inhibition at 50 µg/disc (Loktanella hongkongensis): 0.5 mm; zone of inhibition at 50 µg/disc (Rhodovulum sp.): 3 ± 0.5 mm; zone of inhibition at 50 µg/disc (Vibrio alginolyticus): 1.7 ± 0.6 mm; zone of inhibition at 50 µg/disc (Vibrio furnissii): 0 mm; zone of inhibition at 50 µg/disc (Vibrio halioticoli): 0 mm; zone of inhibition at 50 µg/disc (Vibrio vulnificus): 1.2 ± 0.7 mm; EC50 [3]: 36.5 µg/mL (≈ 178 µM); therapeutic ratio LC50/EC50 ([4]; Balanus amphitrite larvae): 2.23; toxic symptoms ([4]; at the concentration of 50 μg ml^−1, 24 h): did not induce any toxic symptoms; solubility ([5]; ethyl acetate acetone, chloroform, dichloromethane and acetonitrile): soluble
2 | OCc1cc(O)cc(Cl)c1O [Compound 1, 3-chloro-2,5-dihydroxy benzyl alcohol] | 6 mm | 5.5 mm | 5 mm | 5.5 mm | 4.5 mm | 6 mm | 5.5 mm | 3.5 mm | 267 µg/mL (≈ 1530 µM) | 4 mm | 3.5 µg/mL (≈ 20 µM) | 76.2 | soluble | zone of inhibition at 50 µg/disc (Ruegeria sp.): 3.5 mm; zone of inhibition at 50 µg/disc (Staphylococcus aureus): 5.5 mm; concentration at which compound started showing anti-settlement effects ([3]; as low as): 0.1 µg/mL; barnacle larval settlement ([3]; at 5 μg ml^−1, 24 h, 60% in the control): about 10%
3 | O=C1NC(Cc2ccccc2)C(=O)N2CCCC12 (centres unmarked) [Compound 2, cyclo-(Pro-Phe)] | 0.5 mm | 0 mm | 0 mm | 1.7 ± 0.6 mm | 0 mm | 0.8 ± 0.3 mm | 1.2 ± 0.7 mm | 0.5 mm | 115 µg/mL (≈ 470 µM) | 1.3 ± 0.6 mm | 67.3 µg/mL (≈ 275 µM) | 1.70 | soluble | zone of inhibition at 50 µg/disc (Loktanella hongkongensis; 50 μg/disc, 30° C.): 1.3 ± 0.6 mm; zone of inhibition at 50 µg/disc (Rhodovulum sp.; 50 μg/disc, 30° C.): 0 mm; zone of inhibition at 50 µg/disc (Vibrio alginolyticus; 50 μg/disc, 30° C.): 0 mm; zone of inhibition at 50 µg/disc (Vibrio furnissii; 50 μg/disc, 30° C.): 0 mm; zone of inhibition at 50 µg/disc (Vibrio halioticoli; 50 μg/disc, 30° C.): 0 mm; zone of inhibition at 50 µg/disc (Vibrio vulnificus; 50 μg/disc, 30° C.): 1 ± 0.1 mm
